Reference: article PMC8699884, “High-Throughput Functional Analysis of CFTR and Other Apically Localized Proteins in iPSC-Derived Human Intestinal Organoids” (Cells, 2021)

Molecular target: T1, SLC6A14 (Homo sapiens, UniProt Q9UN76)
T1 construct: endogenous transporter in opened human intestinal organoids
T1 sequence (Q9UN76 1-642): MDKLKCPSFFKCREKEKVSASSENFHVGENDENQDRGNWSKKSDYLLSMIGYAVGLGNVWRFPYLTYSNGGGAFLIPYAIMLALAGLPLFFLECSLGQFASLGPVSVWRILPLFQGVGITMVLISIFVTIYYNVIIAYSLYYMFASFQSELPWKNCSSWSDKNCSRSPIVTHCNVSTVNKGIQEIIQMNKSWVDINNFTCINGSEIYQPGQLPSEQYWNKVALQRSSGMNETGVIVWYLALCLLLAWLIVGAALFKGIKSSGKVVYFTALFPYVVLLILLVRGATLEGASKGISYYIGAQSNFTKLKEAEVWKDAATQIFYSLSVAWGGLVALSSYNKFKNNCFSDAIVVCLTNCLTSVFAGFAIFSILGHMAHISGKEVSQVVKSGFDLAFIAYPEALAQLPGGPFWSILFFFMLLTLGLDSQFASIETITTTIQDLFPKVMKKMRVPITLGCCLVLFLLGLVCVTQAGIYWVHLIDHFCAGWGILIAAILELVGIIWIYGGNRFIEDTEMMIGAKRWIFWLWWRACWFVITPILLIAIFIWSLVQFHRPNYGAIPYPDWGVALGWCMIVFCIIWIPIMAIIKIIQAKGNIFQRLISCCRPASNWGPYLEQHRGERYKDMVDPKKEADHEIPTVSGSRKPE
Assay: FLIPR membrane potential (AAC) assay, α-MT-sensitive electrogenic uptake at […]
Assay type: cell-based

Question: Which “FLIPR membrane potential (AAC) assay, α-MT-sensitive electrogenic uptake at 1 mM” value does the source give for N=C(N)NCCC[C@H](N)C(=O)O [L-Arg] here?
Answer: the addition of arginine (L-Arg) to the apical surface of these opened organoids evokes apical membrane depolarization
